Measured values published in the NIST ThermoML archive (doi:10.1016/j.tca.2012.10.018).
Values joined by “and” are separate entries in the source; they are usually repeats but may differ in a detail not shown here. Identical values can stand only once.

Assays:
[1] = mn = molality of the nth substance listed, in mol/kg; settings: 101 kPa, Liquid; for speed of sound: Sing-around technique in a fixed-path interferometer; for mass density: Vibrating tube method
[2] = 101 kPa, Liquid; for speed of sound: Sing-around technique in a fixed-path interferometer; for mass density: Vibrating tube method

O [water] + CC(C)C[C@H](NC(=O)CN)C(=O)O
[1], m2 = 0
Settings	mass density [kg/m3]	speed of sound [m/s]
305.15 K	995.132	1513.5
310.15 K	992.274	1523.5
315.15 K	991.385	1532.2

O [water]
[2]
Settings	mass density [kg/m3]	speed of sound [m/s]
305.15 K	995.132	1513.5
310.15 K	992.274	1523.5
315.15 K	991.385	1532.2

O [water] + NCC(=O)NCC(=O)O
[1], m2 = 0
Settings	mass density [kg/m3]	speed of sound [m/s]
305.15 K	995.132	1513.5
310.15 K	992.274	1523.5
315.15 K	991.385	1532.2

NCC(=O)O [2-aminoacetic acid] + O
[1]
Settings	mass density, m1 = 0.03272 [kg/m3]	mass density, m1 = 0.04933 [kg/m3]	mass density, m1 = 0.0581 [kg/m3]	mass density, m1 = 0.09278 [kg/m3]	mass density, m1 = 0.1392 [kg/m3]	speed of sound, m1 = 0.03272 [m/s]	speed of sound, m1 = 0.04933 [m/s]	speed of sound, m1 = 0.0581 [m/s]	speed of sound, m1 = 0.09278 [m/s]	speed of sound, m1 = 0.1392 [m/s]
305.15 K	996.158	996.664	996.929	–	999.339	1515	1515.7	1516.1	1517.7	1519.6
310.15 K	993.281	–	994.038	995.054	–	1524.9	1525.5	1525.9	1527.3	1529
315.15 K	992.376	–	993.122	994.122	995.416	1533.4	1534	1534.3	1535.6	1537.2

CC(C)C[C@H](NC(=O)CN)C(=O)O [glycyl-L-leucine] + O
[1]
Settings	mass density, m1 = 0.03308 [kg/m3]	mass density, m1 = 0.05972 [kg/m3]	mass density, m1 = 0.09457 [kg/m3]	mass density, m1 = 0.1115 [kg/m3]	speed of sound, m1 = 0.03308 [m/s]	speed of sound, m1 = 0.05972 [m/s]	speed of sound, m1 = 0.09457 [m/s]	speed of sound, m1 = 0.1115 [m/s]
305.15 K	996.762	998.038	999.652	1000.42	1518.1	1521.8	1526.8	1529.1
310.15 K	993.879	995.132	996.722	997.479	1528	1531.6	1536.3	1538.6
315.15 K	992.968	994.198	995.757	996.494	1536.5	1539.9	1544.4	1546.6

NCC(=O)NCC(=O)O [glycylglycine] + O
[1]
Settings	mass density, m1 = 0.01976 [kg/m3]	mass density, m1 = 0.03098 [kg/m3]	mass density, m1 = 0.06804 [kg/m3]	mass density, m1 = 0.08258 [kg/m3]	mass density, m1 = 0.1196 [kg/m3]	speed of sound, m1 = 0.01976 [m/s]	speed of sound, m1 = 0.03098 [m/s]	speed of sound, m1 = 0.06804 [m/s]	speed of sound, m1 = 0.08258 [m/s]	speed of sound, m1 = 0.1196 [m/s]
305.15 K	996.227	996.841	998.809	999.555	1001.4	1515	1515.8	1518.5	1519.5	1522.1
310.15 K	993.362	993.969	995.921	996.662	998.494	1524.9	1525.7	1528.1	1529.1	1531.5
315.15 K	992.463	993.064	994.996	995.732	997.528	1533.4	1534.1	1536.3	1537.2	1539.4

CC1(C)SC2C(NC(=O)C(N)c3ccccc3)C(=O)N2C1C(=O)O (stereo not drawn) + O
[1]
Settings	mass density, m1 = 0.0005 [kg/m3]	mass density, m1 = 0.001 [kg/m3]	mass density, m1 = 0.002 [kg/m3]	mass density, m1 = 0.004 [kg/m3]	speed of sound, m1 = 0.0005 [m/s]	speed of sound, m1 = 0.001 [m/s]	speed of sound, m1 = 0.002 [m/s]	speed of sound, m1 = 0.004
305.15 K	995.119	995.211	995.313	995.507	1513.6	1513.8	1514.1	1514.2 m/s
310.15 K	993.425	993.515	993.607	993.805	1523.4	1523.6	1524.1	1524 m/s
315.15 K	991.53	991.614	991.711	991.91	1531.9	1532	1532.4	1532.4 m/s and 1531.9 m/s

O [water] + NCC(=O)O
[1], m2 = 0
Settings	mass density [kg/m3]	speed of sound [m/s]
305.15 K	995.132	1513.5
310.15 K	992.274	1523.5
315.15 K	991.385	1532.2
